Test results reported in patent US20250066367A1, “Pyrimidine-Annulated Triazole Derivatives and Their Use in Platelet Aggregation Inhibition” (BEIJING HONGHUI MEDITECH CO., LTD., priority 2021, published 2025).
Where two headings read alike, the source gives them in different places.

Biological target: human P2Y12 receptor (Homo sapiens, UniProt Q9H244)
Assay: Inhibition study in human P2Y12 receptor transfected CHO cells (cAMP, LANCE Ultra cAMP Kit)
Assay type: cell-based
Experimental: A CHO cell line which stably expresses human P2Y12 receptors was used in the study of the inhibitory effect of the compounds of the disclosure. (The cell line was constructed by Beijing Ion Channel Explorer Co.) The hP2Y12-CHO Cells were cultured in Ham's F-12 medium (Ham's F-12 Medium: +10% FBS +200 μg/ml Hygromycin B) and incubated at 37° C. under 5% CO2. The poor culture medium was removed, and the cells were washed with PBS. Then 1 mL trypsin solution was added to digest/detach the cells. The culture dish was incubated at 37° C. for 2 minutes. As soon as the cells were detached, 5 mL 37° C. pre-warmed complete medium was added. Cell suspension was transferred into a sterile pipet, the cells aggregates were dissociated by a gentle homogenization. The cell suspension was transferred into a sterile tube, and centrifuged at 1000 rpm for 5 minutes; In order to maintain the physiological activity of cells, the degree of cell fusion was controlled at about 80%.
After cell counting, the cells were cultured in 384-well plate. The test compounds were serially diluted 5-fold from 10000 nM for 10 concentrations and in 3 replicates. Ticagrelor was used as the reference compound and 2-MeSADP as the inducer. After the incubation for 15 min at 37° C., forskolin buffer was added to all wells to induce the production of cAMP. The plate was centrifuged at 1000 rpm for 1 minute, followed by incubation at 37° C. for 30 min. After lysis, the cAMP expression was quantified using PerkinElmer's LANCE® Ultra cAMP Kit method.

[1] = hP2Y12-CHO cells, 2-MeSADP as inducer, forskolin-induced cAMP, read-out: Inbibition of P2Y12 IC50

Sequence of human P2Y12 receptor (Q9H244 whole entry): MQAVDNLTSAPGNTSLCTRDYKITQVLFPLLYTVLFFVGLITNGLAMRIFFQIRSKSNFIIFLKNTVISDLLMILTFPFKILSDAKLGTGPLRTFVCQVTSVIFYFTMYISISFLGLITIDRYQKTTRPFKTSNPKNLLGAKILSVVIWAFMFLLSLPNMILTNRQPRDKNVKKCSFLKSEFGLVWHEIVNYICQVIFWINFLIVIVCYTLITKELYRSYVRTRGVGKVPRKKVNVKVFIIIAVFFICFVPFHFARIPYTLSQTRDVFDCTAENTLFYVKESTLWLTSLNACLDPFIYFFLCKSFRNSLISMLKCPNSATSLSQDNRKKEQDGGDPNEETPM

CCCSc1nc(N[C@@H]2C[C@H]2c2ccc(F)c(F)c2)c2nnn([C@@H]3[C@@H](O)[C@H](CO)O[C@H]3CO)c2n1 [Compound 8, ((2R,3R,4R,5S)-3-(7-(((1R,2S)-2-(3,4-difluorophenyl)cyclopropyl)amino)-5-(propylthio)-3H-[1,2,3]triazolo[4,5-d]pyrimidin-3-yl)-4-hydroxytetrahydrofuran-2,5-diyl)dimethanol]
IC50 [1]: 0.25 to 1.25 µM

CCCSc1nc(N[C@@H]2C[C@H]2c2ccc(F)c(F)c2)c2nnn([C@@H]3C[C@H](CO)O[C@H]3CO)c2n1 [Compound 19, ((2R,3R,5R)-3-(7-(((1R,2S)-2-(3,4-difluorophenyl)cyclopropyl)amino)-5-(propylthio)-3H-[1,2,3]triazolo[4,5-d]pyrimidin-3-yl)tetrahydrofuran-2,5-diyl)dimethanol]
IC50 [1]: < 0.05 µM

CCCSc1nc(N[C@@H]2C[C@H]2c2ccc(F)c(F)c2)c2nnn([C@H]3CO[C@@H](CO)[C@@H]3O)c2n1 [Compound 27, (2S,3R,4S)-4-(7-(((1R,2S)-2-(3,4-difluorophenyl)cyclopropyl)amino)-5-(propylthio)-3H-[1,2,3]triazolo[4,5-d]pyrimidin-3-yl)-2-(hydroxymethyl)tetrahydrofuran-3-ol]
IC50 [1]: < 0.05 µM

CCCSc1nc(N[C@@H]2C[C@H]2c2ccc(F)c(F)c2)c2nnn([C@H]3CO[C@@H](CO)C3)c2n1 [Compound 32, ((2R,4R)-4-(7-(((1R,2S)-2-(3,4-difluorophenyl)cyclopropyl)amino)-5-(propylthio)-3H-[1,2,3]triazolo[4,5-d]pyrimidin-3-yl)tetrahydrofuran-2-yl)methanol]
IC50 [1]: < 0.05 µM

CCCSc1nc(N[C@@H]2C[C@H]2c2ccc(F)c(F)c2)c2nnn([C@@H]3[C@H](F)[C@H](CO)O[C@H]3CO)c2n1 [Compound 39a, ((2R,3S,4S,5S)-3-(7-(((1R,2S)-2-(3,4-difluorophenyl)cyclopropyl)amino)-5-(propylthio)-3H-[1,2,3]triazolo[4,5-d]pyrimidin-3-yl)-4-fluorotetrahydrofuran-2,5-diyl)dimethanol]
IC50 [1]: 0.05 to 0.25 µM

CCCSc1nc(N[C@@H]2C[C@H]2c2ccc(F)c(F)c2)c2nnn([C@@H]3[C@@H](F)[C@H](CO)O[C@H]3CO)c2n1 [Compound 39b, ((2R,3S,4R,5S)-3-(7-(((1R,2S)-2-(3,4-difluorophenyl)cyclopropyl)amino)-5-(propylthio)-3H-[1,2,3]triazolo[4,5-d]pyrimidin-3-yl)-4-fluorotetrahydrofuran-2,5-diyl)dimethanol]
IC50 [1]: 0.05 to 0.25 µM

CCCSc1nc(N[C@@H]2C[C@H]2c2ccc(F)c(F)c2)c2nnn([C@@H]3C[C@H](C(=O)O)O[C@H]3CO)c2n1 [Compound 42, (2R,4R,5R)-4-(7-(((1R,2S)-2-(3,4-difluorophenyl)cyclopropyl)amino)-5-(propylthio)-3H-[1,2,3]triazolo[4,5-d]pyrimidin-3-yl)-5-(hydroxymethyl)tetrahydrofuran-2-carboxylic acid]
IC50 [1]: < 0.05 µM

CCC[S+]([O-])c1nc(N[C@@H]2C[C@H]2c2ccc(F)c(F)c2)c2nnn([C@@H]3C[C@H](C(=O)O)O[C@H]3CO)c2n1 (stereo partly drawn) [Compound 43, (2R,4R,5R)-4-(7-(((1R,2S)-2-(3,4-difluorophenyl)cyclopropyl)amino)-5-(propylsulfinyl)-3H-[1,2,3]triazolo[4,5-d]pyrimidin-3-yl)-5-(hydroxymethyl) tetrahydrofuran-2-carboxylic Acid]
IC50 [1]: 0.25 to 1.25 µM

CCCSc1nc(N[C@@H]2C[C@H]2c2ccc(F)c(F)c2)c2nnn([C@@H]3C[C@H](CO)O[C@H]3COC)c2n1 [Compound 49, ((2R,4R,5R)-4-(7-(((1R,2S)-2-(3,4-difluorophenyl)cyclopropyl)amino)-5-(propylthio)-3H-[1,2,3]triazolo[4,5-d]pyrimidin-3-yl)-5-(methoxymethyl)tetrahydrofuran-2-yl)methanol]
IC50 [1]: 0.25 to 1.25 µM

CCCSc1nc(N[C@@H]2C[C@H]2c2ccc(F)c(F)c2)c2nnn([C@@H]3C[C@H](CCO)O[C@H]3CO)c2n1 [Compound 54, 2-((2R,4R,5R)-4-(7-(((1R,2S)-2-(3,4-difluorophenyl)cyclopropyl)amino)-5-(propylthio)-3H-[1,2,3]triazolo[4,5-d]pyrimidin-3-yl)-5-(hydroxymethyl)tetrahydrofuran-2-yl)ethan-1-ol]
IC50 [1]: > 1.25 µM

CCCSc1nc(N[C@@H]2C[C@H]2c2ccc(F)c(F)c2)c2nnn([C@@H]3C[C@H](OCCO)[C@@H](O)[C@H]3O)c2n1 [Ticagrelor, reference compound]
IC50: < 0.05 µM
